Patent publication US8809372B2, “Pyridine derivatives” (Endo Pharmaceuticals, Inc., priority 2011, dated 2014)

Columns and labels:
[1] = target: T1, rat CYP17 (rat testicular microsomes) (Rattus norvegicus, UniProt P11715); test: CYP17 inhibition assay in rat testicular microsomes; format: biochemical
T1 construct: Rat testis tissue was collected and disrupted with 30 strokes of a glass homogenizer; from tissue; host or cells: rat testis (microsomes)
T1 sequence (P11715 1-507): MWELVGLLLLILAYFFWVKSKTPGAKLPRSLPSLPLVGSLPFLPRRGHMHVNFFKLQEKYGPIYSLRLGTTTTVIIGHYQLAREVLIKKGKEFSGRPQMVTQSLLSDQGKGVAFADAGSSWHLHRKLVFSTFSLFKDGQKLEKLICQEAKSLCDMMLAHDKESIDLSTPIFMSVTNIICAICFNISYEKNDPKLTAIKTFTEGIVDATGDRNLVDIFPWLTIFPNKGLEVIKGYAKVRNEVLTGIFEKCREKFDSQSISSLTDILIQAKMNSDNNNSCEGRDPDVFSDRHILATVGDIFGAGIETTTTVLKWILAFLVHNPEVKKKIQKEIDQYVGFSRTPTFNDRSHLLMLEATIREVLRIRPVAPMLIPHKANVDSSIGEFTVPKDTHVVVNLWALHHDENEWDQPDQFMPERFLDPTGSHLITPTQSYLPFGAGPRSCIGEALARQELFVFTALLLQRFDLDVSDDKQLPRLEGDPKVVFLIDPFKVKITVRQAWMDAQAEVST
Protocol: CYP17 Inhibition Assay in Rat Testicular Microsomes (Rat CYP17) or Yeast Microsome Overexpressing Human CYP17
1. NADPH (Sigma): A working stock was prepared by adding 25 μL of 6.5 mM NADPH in each tube. The final concentration of NADPH used in the assay was 325 μM.
2. Potassium Phosphate Buffer: One molar (1M) solutions of K2HPO4 and KH2PO4 were prepared. Eight mL of the 1 M KH2PO4 and 1.98 mL of the 1 M K2HPO4 were combined and the pH was adjusted to 7.4.
3. ^3H3-17α-hydroxypregnenolone (American Radiolabeled Chemicals, Inc., stock 1 μCi/μL): A 1:1 dilution of ^3H3-17α-hydroxypregnenolone in ethanol was prepared by combining 100 μL ^3H3-17α-hydroxypregnenolone+100 μL ethanol for one complete 96 well plate. For the reaction, 2 μL of the diluted ^3H3-17α-hydroxypregnenolone was added in each tube, i.e., 1 μCi/reaction. 4. Microsome Isolation Buffer: The microsome isolation buffer was prepared by combining 250 mM Sucrose, 5 mM EDTA, 10 mM Tris HCl, 4 mM DTT, and adjusting to pH 7.4. 5. TEG Buffer: The TEG buffer was prepared by combining 50 mM Tris HCl, 1 mM EDTA, and 20% Glycerol. 6. Rat Testicular Microsomes: Rat testis tissue was collected and disrupted with 30 strokes of a glass homogenizer on ice with 250 μL of microsome isolation buffer, followed by centrifugation at 10,000 g for 10 minutes at 4° C. The supernatant was collected and centrifuged at 100,000 g for 45 minutes at 4° C. The pellet was dissolved in TEG Buffer and the protein was quantified. The homogenized microsome samples were then frozen at −80° C. • 7. Yeast Microsomes which overexpress the human CYP17 enzyme were obtained from Premas Biotech, India.
Potassium phosphate buffer (470 μL) was prepared as described above and was added to each well of a deep well plate. The test compound was diluted using a TECAN liquid handler and 5 μL of diluted compound was transferred to each well (96 deep well/1 mL). A solution (25 μL) of 6.5 mM NADPH was added (final concentration of 325 μM in the assay). ^3H3-17α-hydroxypregnenolone (2 μL of the working stock) was added to each tube. The plates were then pre-incubated for 15 minutes at 37° C. Following the pre-incubation, either 5 μL rat testicular microsomes (150-160 μg) or 5 μL of yeast microsomes expressing human CYP17 (1.7 pmol), was added. Incubation was at 37° C. for 60 minutes in the presence of oxygen. The plates were then placed in ice and chloroform (500 μL) was added, mixed well and incubated at 4° C. for 20 minutes. The plates were then centrifuged at 1000 rpm for 15 minutes at 4° C.
A portion (300 μL) of the aqueous solution was collected and mixed with a 5% aqueous suspension of activated charcoal (300 μL). The plates were then incubated at 4° C. for 30 minutes, after which the plates were centrifuged at 1000 rpm for 15 minutes at 4° C. From this, 125 μL of the aqueous solution was collected and plated into a 96 well plate. Microscint™ 40 [125 μL, Perkin-Elmer; containing a mixture of a polymer based on alkylphenolethoxylate (20-40%), diethanolamine-phosphoric acid ester ammonium salt (10-20%), sodium dioctyl sulphosuccinate (2.5-10%), triethyl phosphate (2.5-10%), 3,6-dimethyl-4-octyne-3,6-diol (≦2.5%), a polymer based on nonylphenolethoxylate (≦2.5%), diisopropyl naphthalene isomers (40-60%), 2,5-diphenyloxazole (≦2.5%), and 9,10-dimethylanthracene] was added and mixed well. After 30 minutes of incubation, the samples were analyzed with a MicroBeta® Trilux microplate liquid scintillation counter and luminometer (Perkin-Elmer).

[2] = target: T2, human CYP17 in H295R adrenocortical carcinoma cells (Homo sapiens, UniProt P05093); test: Cell-based human CYP17 inhibition assay, H295R cells; details: 16 hours, read-out: CYP17 (human H295R adrenal cells)
T2 construct: H295R Adrenocortical carcinoma cells [NCI-H295A, ATCC Number CRL-2128, American Type Culture Collection; host or cells: H295R adrenocortical carcinoma cells
T2 sequence (P05093 1-508): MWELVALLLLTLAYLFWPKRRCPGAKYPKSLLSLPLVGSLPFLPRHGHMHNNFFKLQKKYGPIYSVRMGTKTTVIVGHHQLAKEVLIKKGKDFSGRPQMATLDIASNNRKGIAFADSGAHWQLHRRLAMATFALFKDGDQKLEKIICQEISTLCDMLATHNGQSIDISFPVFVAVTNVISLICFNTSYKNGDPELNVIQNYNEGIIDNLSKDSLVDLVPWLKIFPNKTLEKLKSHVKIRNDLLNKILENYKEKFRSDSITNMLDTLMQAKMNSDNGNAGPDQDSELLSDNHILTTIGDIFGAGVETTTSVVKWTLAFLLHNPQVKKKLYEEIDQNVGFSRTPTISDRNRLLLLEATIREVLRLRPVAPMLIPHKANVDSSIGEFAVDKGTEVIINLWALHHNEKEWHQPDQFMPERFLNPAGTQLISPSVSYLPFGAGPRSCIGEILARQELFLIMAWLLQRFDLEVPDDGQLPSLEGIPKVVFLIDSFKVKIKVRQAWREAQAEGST
Protocol: Cell-Based Human CYP17 Inhibition Assay
1. H295R Adrenocortical Carcinoma Cells and Growth Media: The media for the H295R Adrenocortical carcinoma cells [NCI-H295A, ATCC Number CRL-2128, American Type Culture Collection, Manassas, Va., US] (500 mL) was a DMEM:F12 Mix 1:1 with 5% (2 mL) BD Nu Serum; 1% (5 mL) ITS+Premix [BD Biosciences] and 1% Penstrep. 2. LNCap-CYP17 Cells and Growth Media: Full length hCYP17a1 gene (NCBI Reference Sequence: NM_000102.3) was cloned in pcDNA3.1(+) vector between HindIII and XhoI site. The pcDNA3.1(+) vector contains the Neomycin resistance gene and was used for selection of stable cell line. The hCYP17a1 containing pcDNA3.1(+) was transfected into LNCap cells to create the LNCap-CYP17 cell line. The media for the LNCaP-CYP17 cells was RPMI 1640, 10% FBS, 1% PenStrep, Geneticin 400 μg/mL.
The H295R cells or LNCaP-hCYP17 cells were subcultured and 30,000 cells per well were seeded in a poly-d lysine plate and incubated overnight at 37° C. The next day the media was removed and 200 μL of fresh media with ^3H3-17α-hydroxy-pregnenolone (1:1000) was added. 50 μL of serially diluted compounds from a 5× plate (5 times the final desired concentration) was added. The working concentration range for active, new compounds started from a high concentration of 10 μM with 3-fold serial dilutions generating up to 10 concentrations. The serial dilution in the 100× plate (in DMSO) and the stamping of a 5× plate (in media) from the 100× plate were carried out using a TECAN liquid handling device.
The plates were incubated overnight (16 hours) at 37° C. After 16 hours, the media was removed (approximately 220 μL) and an equal amount of chloroform was added, mixed and incubated for 30 minutes at 4 degrees. The plate was centrifuged at 4000 rpm for 15 minutes at 4° C., following which the top aqueous layer was carefully removed and added into a new deep well plate. An equal volume of activated 5% charcoal was added, mixed and incubated for 30 minutes at 4° C. The plate was then centrifuged at 4000 rpm for 15 minutes at 4° C. and the top layer carefully separated, avoiding any charcoal contamination, and placed in a white, clear bottom plate (plate cat #3610, Corning Life Sciences). An equal volume of Microscint™ 40 was added and mixed well. Following the incubation for 30 minutes, readings for the radiotracer were taken using a Microbeta® trilux.

SMILES	IC50 [1] [µM]	IC50 [2] [µM]
CC(O)(c1ccncc1)c1cnc(-c2ccc(Cl)c(Cl)c2)s1 (stereo not shown) [Example 43, 1-(2-(3,4-dichlorophenyl)thiazol-5-yl)-1-(pyridin-4-yl)ethanol]	< 0.05	< 0.05
CC(O)(c1ccncc1)c1cnc(-c2ccc(F)c(F)c2)s1 (stereo not shown) [Example 44, 1-(2-(3,4-difluorophenyl)thiazol-5-yl)-1-(pyridin-4-yl)ethanol]	< 0.05	< 0.05
CC(O)(c1ccncc1)c1nnc(-c2ccc(F)cc2)o1 (stereo not shown) [Example 31, 1-(5-(4-Fluorophenyl)-1,3,4-oxadiazol-2-yl)-1-(pyridin-4-yl)ethanol]	0.05 to 0.2	0.201 to 10
CC(O)(c1ccncc1)c1ncc(-c2ccc(F)cc2)s1 (single isomer, unassigned; (+)) [Example 55, (+)-1-(5-(4-fluorophenyl)thiazol-2-yl)-1-(pyridin-4-yl)ethanol]	< 0.05	0.05 to 0.2
CC(N)(c1ccncc1)c1cnc(-c2ccc(F)cc2)s1 (stereo not shown) [Example 68, 1-(2-(4-Fluorophenyl)thiazol-5-yl)-1-(pyridin-4-yl)ethanamine]	< 0.05	0.05 to 0.2
CC(O)(c1ccncc1)c1ccc(-c2ccc(F)cc2)cn1 (stereo not shown) [Example 5, 1-(5-(4-fluorophenyl)-pyridin-2-yl)-1-(pyridin-4-yl)ethanol]	< 0.05	0.201 to 10
CCC(O)(c1ccncc1)c1cnc(-c2cn[nH]c2)s1 (single isomer, unassigned; (-)) [Example 19, (−)-1-[2-(1H-pyrazol-4-yl)-1,3-thiazol-5-yl]-1-pyridin-4-ylpropan-1-ol]	< 0.05	< 0.05
CCC(O)(c1ccncc1)c1cnc(-c2cn[nH]c2)s1 (stereo not shown) [Example 18, 1-(2-(1H-Pyrazol-4-yl)thiazol-5-yl)-1-(pyridin-4-yl)propan-1-ol]	< 0.05	< 0.05
CC(O)(c1ccncc1)c1ncc(-c2ccc(F)cc2)s1 (single isomer, unassigned; (-)) [Example 54, (−)-1-(5-(4-fluorophenyl)thiazol-2-yl)-1-(pyridin-4-yl)ethanol]	< 0.05	< 0.05
CC(C)C(O)(c1ccncc1)c1cnc(-c2ccc(F)cc2)s1 (stereo not shown) [Example 33, 1-[2-(4-Fluoro-phenyl)-thiazol-5-yl]-2-methyl-1-pyridin-4-yl-propan-1-ol]	< 0.05	< 0.05
CC(O)(c1ccncc1)c1cnc(-c2ccc(S(C)(=O)=O)cc2)s1 (stereo not shown) [Example 45, 1-(2-(4-(methylsulfonyl)-phenyl)thiazol-5-yl)-1-(pyridin-4-yl)ethanol]	0.05 to 0.2	0.201 to 10
CC(O)(c1ccncc1)c1cc(-c2ccc(F)cc2)ns1 (stereo not shown) [Example 48, 1-(3-(4-fluorophenyl)isothiazol-5-yl)-1-(pyridin-4-yl)ethanol]	< 0.05	< 0.05
CC(O)(c1ccncc1)c1nc(-c2ccc(F)cc2)ns1 (stereo not shown) [Example 52, 1-(3-(4-fluorophenyl)-1,2,4-thiadiazol-5-yl)-1-(pyridin-4-yl)ethanol]	< 0.05	< 0.05
Cn1cc(-c2ccc(C(C)(O)c3ccncc3)o2)ccc1=O (stereo not shown) [Example 58, 5-(5-(1-hydroxy-1-(pyridin-4-yl)ethyl)furan-2-yl)-1-methylpyridin-2(1H)-one]	0.05 to 0.2	0.201 to 10
CCCCC(=O)c1ccc(-c2ccc(C(C)(O)c3ccncc3)nc2)cn1 (stereo not shown) [Example 62, 1-(6′-(1-hydroxy-1-(pyridin-4-yl)ethyl)-[3,3′-bipyridin]-6-yl)pentan-1-one]	0.05 to 0.2	0.201 to 10
CC(O)(c1ccncc1)c1cnc(-c2ccc(Cl)cc2)s1 (stereo not shown) [Example 28, 1-(2-(4-Chlorophenyl)thiazol-5-yl)-1-(pyridin-4-yl)ethanol]	< 0.05	< 0.05
CC(O)(c1ccncc1)c1cnc(-c2ccc(C(F)(F)F)c(Cl)c2)s1 (stereo not shown) [Example 41, 1-(2-(3-chloro-4-(trifluoromethyl)phenyl)thiazol-5-yl)-1-(pyridin-4-yl)ethanol]	< 0.05	< 0.05
